# Measurements published in patent publication US10028992B2, “Methods of treating muscular dystrophy” (BOARD OF REGENTS OF THE NEVADA SYSTEM OF HIGHER EDUCATION …, priority 2012, dated 2018).
# Where “and” joins values, the source holds several entries; their conditions need not be identical. Identical values can stand only once.
# Tested on: α7 integrin promoter
# Assay: muscle cell-based assay: α7βgal+/− myoblasts/myotubes, LacZ reporter, β-galactosidase cleavage of FDG
# Design: species or system mouse; Results in α7+/− β-galactosidase assay: scale not given here
# Details: Myoblasts
# Procedure, shortened: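 Fluorescein generated from FDG by β-galactosidase reports α7 integrin promoter activity in differentiated myoblasts from α7+/− LacZ knock-in pups. Screening hits then went to dose-response, western blotting and a myostatin counterscreen.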
Structure (SMILES),Results in α7+/− β-galactosidase assay (0.5 uM),Results in α7+/− β-galactosidase assay (1 uM),Results in α7+/− β-galactosidase assay (5 uM),Results in α7+/− β-galactosidase assay (10 uM),Results in α7+/− β-galactosidase assay (20 uM),Results in α7+/− β-galactosidase assay (40 uM)
N=C(NOC(=O)c1cccc(C(F)(F)F)c1)c1cnccn1 [drawing 577],−0.05513,0.02871,−0.00636,−0.02595,0.07472,0.1346
CCOc1ccc2nc(Cl)sc2c1 [drawing 578],−0.06751,0.05388,0.04367,−0.03134,0.1725,0.1336
COc1ccc(CNC(=O)C2CCCN(S(=O)(=O)c3c(C)noc3/C=C/N(C)C)C2)cc1 (stereo not shown) [drawing 579],−0.00404,0.03462,−0.04768,−0.2043,−0.2235,−0.5821
CC(O)CNc1nc2c(c(=O)n(Cc3ccc(Br)cc3)c(=O)n2C)n1C (stereo not shown) [drawing 580],0.04963,0.02595,−0.05885,−0.1174,−0.1471,−0.218
COc1ccc(Cl)cc1NC(=O)c1cc(-c2cc(C)ccc2O)[nH]n1 [drawing 581],0.01879,0.1148,−0.07708,−0.1804,−0.08756,−0.06105
CCC(C)C(CC)NC(=O)CSc1nnc(COc2ccc(Cl)cc2)o1 (stereo not shown) [drawing 582],0.3279,0.05348,0.1357,−0.1014,−0.1787,−0.4133
N#Cc1ccc(Sc2nc3ccccc3[nH]2)cc1C#N [drawing 584],0.3095,0.07925,0.2487,0.1199,0.003655,−0.1111
COc1cc(/C=C/CN2CCN(Cc3ccc(C)o3)C(CCO)C2)ccc1O (stereo not shown) [drawing 585],,,0.1427 and 0.1728,,,
COc1ccccc1C(=O)OCc1ccc2sc(C)nc2c1 [drawing 586],0.191,−0.07182,0.1329,0.00833,0.1184,0.01583
NC(=O)COc1ccc(C(=O)/C=C2\C(=O)Nc3ccccc32)cc1 [drawing 587],0.211,−0.06344,−0.1959,−0.647,−0.8153,−0.9741
CC1(C)Cc2ccccc2-c2nc3n(c(=O)c21)CCS3 [drawing 588],0.2141,0.0159,0.02034,0.02377,−0.2051,−0.4207
CN(/C(=N/S(=O)(=O)c1cccs1)c1ccccc1)c1ccccc1 [drawing 589],0.2361,−0.03677,−0.05696,−0.01934,−0.0583,−0.2263
CSc1ccc(S(=O)(=O)NCc2ccccc2)cc1 [drawing 590],−0.1174,−0.07696,0.06657,0.6252,0.01406,−0.1992
O=C1Nc2ccccc2/C1=C/c1ccccc1F [drawing 591],−0.0677,−0.05193,0.009111,0.1004,−0.4184,−0.7444
CN1C(=O)/C(=C(/C#N)c2nc3ccccc3[nH]2)c2ccccc21 [drawing 592],−0.1972,−0.1961,−0.2667,0.04652,−0.456,−0.5499
CC1CC(C)(C)N=C(S)N1CC(=O)N(C)Cc1ccccc1 (stereo not shown) [drawing 593],−0.00967,0.04937,0.1163,0.244,0.03336,0.02068
Cc1noc(C)c1COc1ccc(C(=O)NCCc2ccccn2)cc1 [drawing 594],−0.1523,−0.1552,−0.01736,0.1691,−0.127,−0.3226
COCCSc1ccccc1C(=O)Nc1cc(C)cc(C)c1 [drawing 595],−0.06029,−0.1236,0.04359,0.2482,−0.09845,−0.1003
CC(=O)Nc1ccc(NC(=O)c2cc(=O)c3cc(C)cc(C)c3o2)cc1 [drawing 596],−0.1173,−0.07551,−0.4622,0.1321,−0.5173,−0.5206
Cc1cccc(Sc2nc(-c3ccccc3)ccc2C#N)c1 [drawing 598],−0.2243,−0.2124,0.4228,0.1696,−0.08803,−0.1146
CCC(C)NC(=O)CSc1nnc(COc2ccc(Br)cc2)o1 (stereo not shown) [drawing 599],0.03703,−0.07,−0.1163,0.4886,−0.0797,−0.4672
Cc1ccc(N2C(=O)C3NN=C(C(=O)OCc4ccccc4)C3C2=O)cc1 (stereo not shown) [drawing 600],0.05483,−0.02931,−0.09981,−0.01836,0.1359,−0.03893
